Assay [1] deals with T1, subtype C HIV-1 RT (cWT), recombinant p66/p51 heterodimer.
T1 construct: gene pol; mature RT cut from Gag-Pol polyprotein; plasmid pcRT6H-PROT, His-tagged, E. coli M15(pREP4); with p51 RT
Briefly: steady-state filter-binding assay, [3H]dATP incorporation. It is filed as biochemical, Human immunodeficiency virus type 1. Particulars: dPR primer on subtype C HIV-1 PBS RNA, 50 μM dCTP/dGTP/dTTP, 5 mM MgCl2, pH 7.8, 37°C. The source says: steady-state filter-binding assay, [3H]dATP incorporation on subtype C HIV-1 RT (cWT), recombinant p66/p51 heterodimer

For assay [2] the test system is unchanged. In words: gel-based primer extension, inhibition of full-length DNA synthesis. The class given is biochemical, Human immunodeficiency virus type 1. Particulars: 19D/57D DNA primer/template. The source says:
gel-based primer extension, inhibition of full-length DNA synthesis on subtype C HIV-1 RT (cWT), recombinant p66/p51 heterodimer | we determined the efficiencies of incorporation of TFV-DP using subtype C WT

A word on the Km: it is the concentration of substrate that gives half-maximal velocity. As a reminder, the IC50 is the concentration that gives 50% inhibition. In general, Ki refers to the dissociation constant of the complex between target and ligand, obtained from inhibition or displacement.

`Nc1ncnc2c1ncn2[C@H]1C[C@H](O)[C@@H](COP(=O)(O)OP(=O)(O)OP(=O)(O)O)O1` [dATP]: the Km in assay [1] (no TFV-DP) stood at 0.51 ± 0.04 µM. As for `C[C@H](Cn1cnc2c(N)ncnc21)OCP(=O)(O)OP(=O)(O)OP(=O)(O)O` [TFV-DP], in assay [2], the IC50 worked out at 2600 ± 500 nM. The Ki in assay [1] (variable dATP, chain terminator, read-out: Ki(TFV), μM^b) is 0.24 ± 0.04 µM.
